We go through one molecule from BindingDB's records for doi:10.1016/j.bmcl.2017.02.035 (Nestl&#65533, 2017).

One may read the pIC50 as the negative decadic logarithm of the IC50, by convention in mol/L.

pIC50: −log10 of the molar value.

This test has as its target Disintegrin and metalloproteinase domain-containing protein 17 (Homo sapiens, UniProt P78536). Description: Inhibition of recombinant TACE catalytic domain (unknown origin) using Abz-LAQAVRSSSR-Dpa as substrate preincubated for 10 mins followed by substrate addition measured after 10 mins by FRET assay.

Chain of Disintegrin and metalloproteinase domain-containing protein 17 (P78536 whole entry, the tested form may be a part): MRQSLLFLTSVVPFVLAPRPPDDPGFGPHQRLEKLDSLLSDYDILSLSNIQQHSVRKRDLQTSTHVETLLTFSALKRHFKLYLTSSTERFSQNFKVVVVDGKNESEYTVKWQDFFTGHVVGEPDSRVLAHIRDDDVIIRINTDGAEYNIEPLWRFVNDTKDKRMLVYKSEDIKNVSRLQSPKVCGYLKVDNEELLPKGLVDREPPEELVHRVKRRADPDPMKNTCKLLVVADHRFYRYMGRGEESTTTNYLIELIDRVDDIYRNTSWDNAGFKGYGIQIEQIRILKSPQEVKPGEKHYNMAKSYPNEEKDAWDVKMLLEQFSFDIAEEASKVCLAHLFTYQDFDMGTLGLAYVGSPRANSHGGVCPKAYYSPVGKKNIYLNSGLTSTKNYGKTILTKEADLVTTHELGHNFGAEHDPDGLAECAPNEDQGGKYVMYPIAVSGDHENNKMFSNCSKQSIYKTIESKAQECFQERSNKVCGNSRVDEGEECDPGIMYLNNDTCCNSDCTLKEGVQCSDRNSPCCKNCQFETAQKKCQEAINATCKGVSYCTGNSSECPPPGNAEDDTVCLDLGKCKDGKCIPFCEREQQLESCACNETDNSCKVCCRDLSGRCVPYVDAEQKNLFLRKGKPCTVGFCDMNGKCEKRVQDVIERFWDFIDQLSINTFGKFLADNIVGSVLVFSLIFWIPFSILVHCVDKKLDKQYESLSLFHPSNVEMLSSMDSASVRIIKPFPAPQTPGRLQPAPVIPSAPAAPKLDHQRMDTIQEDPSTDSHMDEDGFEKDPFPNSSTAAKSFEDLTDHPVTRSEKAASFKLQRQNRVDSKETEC

As to `C#CCN1C[C@H](C(=O)NO)[C@H](NS(=O)(=O)c2ccc(OCc3cc(C)nc4ccccc34)cc2)C1`, the pIC50 is 9.15.
